Source: patent US10273235B2, “Compositions and methods for inhibiting β-lactamase” (LegoChem Biosciences, Inc., priority 2015, dated 2019)
Structures can show the parent of a compound that is named as a salt.

Legend:
[1] = tested on: K. pneumoniae CL5761; experiment: MIC of strain used for extraction of enzymes, K. pneumoniae CL5761 (KPC-3, TEM-216, SHV-5); format: cell-based; settings: BLI: 4 ug/mL
Protocol: (§1) MIC90 (μg/mL) is the lowest concentration of an antibiotic that will inhibit the visible growth of 90% of microorganisms after incubation as compared with a control group to which the antibiotic is not treated.
(§2) MIC values were measured by the broth microdilution method developed by the Clinical and Laboratory Standards Institute (CLSI) (see CLSI M07-A9, Methods for Dilution Antimicrobial Susceptibility Test for Bacteria that Grow Aerobically; Approved Standard-Ninth Edition (2012): CLSI, Villanova, Pa.). The in vitro antibacterial activity was measured with respect to the following 9 clinical isolates: P. aeruginosa (3 strains); K. pneumoniae (6 strains). The in vitro antibacterial activity of selected compounds was measured with respect to the following 15 clinical isolates: K. pneumoniae (15 strains).

[2] = tested on: E. coli ECO200; experiment: MIC of strain used for extraction of enzymes, E. coli ECO200 (NDM-1, TEM-1, CTX-M-15, EC (AmpC), OXA-2 type); format: cell-based
[3] = tested on: E. coli K0519020; experiment: MIC of strain used for extraction of enzymes, E. coli K0519020 (CTX-M-15, TEM-1, OXA-1, AmpC (NC_000913)); format: cell-based
[4] = tested on: E. coli TOPDXA048; experiment: MIC of strain used for extraction of enzymes, E. coli TOPDXA048 (OXA-48, TEM-116, AmpC (NC_000913)); format: cell-based
[5] = tested on: E. aerogenes K9911729; experiment: MIC of strain used for extraction of enzymes, E. aerogenes K9911729 (CMY-10, TEM-1, SHV-12, AmpC (DQ478697)); format: cell-based
[6] = biological target: KPC-3 β-lactamase (class A) (Klebsiella pneumoniae, UniProt Q9F663, H272Y); experiment: Inhibitory activity against β-lactamases (nitrocefin), KPC-3; format: biochemical, K. pneumoniae
Chain of KPC-3 β-lactamase (class A) (Q9F663 25-293 H272Y): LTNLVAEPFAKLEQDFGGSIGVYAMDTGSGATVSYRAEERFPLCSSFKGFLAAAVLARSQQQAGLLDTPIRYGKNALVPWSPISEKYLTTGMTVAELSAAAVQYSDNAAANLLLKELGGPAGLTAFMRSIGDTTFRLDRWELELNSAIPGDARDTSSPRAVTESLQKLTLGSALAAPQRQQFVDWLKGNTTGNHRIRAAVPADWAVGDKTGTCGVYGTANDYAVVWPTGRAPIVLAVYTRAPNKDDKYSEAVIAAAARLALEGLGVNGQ
Protocol: (§3) More diluted stocks were prepared as necessary. Enzyme activity was determined by monitoring the change of absorbance at 492 nm using the characteristic molecular extinction coefficient (Δε492=17,400 M^−1 cm^−1) of nitrocefin by a Shimazu UV-1650PC spectrophotometer. The nitrocefin was purchased from OXOID. Kinetic measurements were run at 30° C. in 10 mM MES[2-(N-morpholino)ethanesulfonic acid]buffer (pH 6.8) or 10 mM MES[2-(N-morpholino)ethanesulfonic acid] buffer (pH 6.8), […] BSA and 50 mM sodium bicarbonate. Reactions were performed in 2.5 mL cuvettes with 100 μM nitrocefin and initiated by adding 1.5 nM to 2.5 nM enzyme. The first 180 s of each reaction was used to measure initial rates. Data were evaluated using Microsoft Excel. Concentration dependent inhibition of enzyme was measured using different concentrations of inhibitors resulting from two-fold dilution series. Reaction progress at every concentration of inhibitor was measured in triplicates. IC50 values were calculated using 4-parameter log fits using XL Fit curve fitting software (www.idbs.com) for Excel using the following equation:
(§4) [formula] where y is the remaining enzyme activity (in %) and x is the corresponding concentration. he fitted IC50 parameter is the relative IC50, and is defined as the concentration giving a response half way between the fitted top (B) and bottom (A) of the curve.

[7] = biological target: T1, NDM-1 β-lactamase (class B) (Klebsiella pneumoniae, UniProt C7C422); experiment: Inhibitory activity against β-lactamases (nitrocefin), NDM-1; format: biochemical; settings: 100 μM nitrocefin, 30° C., pH 6.8
T1 construct: MICs of bacterial strains used for extraction of enzymes; endogenous in cells; host or cells: bacterial strain carrying NDM-1 (E. coli according to the earlier reading)
T1 sequence (C7C422 29-270, looked up): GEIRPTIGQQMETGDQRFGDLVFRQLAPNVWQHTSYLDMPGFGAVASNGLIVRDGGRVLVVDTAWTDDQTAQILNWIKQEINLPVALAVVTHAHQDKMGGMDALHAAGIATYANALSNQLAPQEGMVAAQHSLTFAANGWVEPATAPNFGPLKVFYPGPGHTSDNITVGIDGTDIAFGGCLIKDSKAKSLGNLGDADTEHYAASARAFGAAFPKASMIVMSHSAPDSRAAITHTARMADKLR
Protocol: as §3, §4

[8] = biological target: T2, CMY-10 β-lactamase (class C) (Klebsiella aerogenes, UniProt Q99QC1); experiment: Inhibitory activity against β-lactamases (nitrocefin), CMY-10; format: biochemical
T2 construct: MICs of bacterial strains used for extraction of enzymes; endogenous in cells
T2 sequence (Q99QC1 24-382): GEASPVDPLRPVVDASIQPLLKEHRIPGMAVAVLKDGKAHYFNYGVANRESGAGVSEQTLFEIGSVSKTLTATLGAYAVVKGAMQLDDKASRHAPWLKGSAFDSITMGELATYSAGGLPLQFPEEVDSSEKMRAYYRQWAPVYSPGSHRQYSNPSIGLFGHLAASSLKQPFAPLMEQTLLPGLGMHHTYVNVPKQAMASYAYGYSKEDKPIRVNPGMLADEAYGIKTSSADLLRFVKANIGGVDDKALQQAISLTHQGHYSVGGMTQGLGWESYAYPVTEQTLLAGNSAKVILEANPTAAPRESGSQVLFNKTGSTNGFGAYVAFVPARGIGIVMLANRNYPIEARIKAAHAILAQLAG
Protocol: as §3, §4

[9] = biological target: T3, OXA-48 β-lactamase (class D) (Klebsiella pneumoniae, UniProt Q6XEC0); experiment: Inhibitory activity against β-lactamases (nitrocefin), OXA-48; format: biochemical; settings: 100 μM nitrocefin, 30° C., pH 6.8
T3 construct: MICs of bacterial strains used for extraction of enzymes; endogenous in cells; host or cells: bacterial strain carrying OXA-48 (E. coli according to the earlier reading)
T3 sequence (Q6XEC0 23-265, looked up): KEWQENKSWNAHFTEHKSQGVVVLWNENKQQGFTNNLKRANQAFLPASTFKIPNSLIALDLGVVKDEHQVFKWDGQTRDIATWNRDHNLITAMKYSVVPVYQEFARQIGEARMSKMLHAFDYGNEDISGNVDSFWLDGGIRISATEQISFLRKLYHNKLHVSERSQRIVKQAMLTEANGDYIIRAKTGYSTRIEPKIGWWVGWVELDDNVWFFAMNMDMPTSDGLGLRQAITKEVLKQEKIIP
Protocol: as §3, §4

[10] = Mouse pharmacokinetics; format: in vivo, ICR mouse; settings: IV, 50 mg/kg, plasma
Protocol: The pharmacokinetics values were evaluated in a mouse model. The test compound (50 mg/kg) was injected into the tail vein of 8 week old ICR mouse, weighing approximately 26-30 g. […] Lab conditions were temperature of 22±3° C. and humidity of 50±20%.

[11] = tested on: K. pneumoniae clinical strains expressing β-lactamases; experiment: BLI potentiation MIC, panel of K. pneumoniae clinical strains expressing β-lactamases (isoxazoline vs. isoxazole); format: cell-based; settings: in combination with Meropenem and LCB10-0200; Table 12
Protocol: as §1, §2

## O=C1N2C[C@@H](CC[C@H]2C2=NO[C@]3(CCNC3)C2)N1OS(=O)(=O)O [Example 17, [(2S,5R)-2-[(5R)-1-oxa-2,7-diazaspiro[4.4]non-2-en-3-yl]-7-oxo-1,6-diazabicyclo[3.2.1]octan-6-yl] hydrogen sulfate]
[1]
  MIC of Meropenem with BLI: 0.5 mg/L
[1]; Klebsiella pneumoniae, CL5761, read-out: MIC of LCB10-0200 with BLI
  MIC: 0.125 mg/L
[2]; BLI: 4 ug/mL
  MIC of Meropenem with BLI: <0.0312 mg/L
[2]; Escherichia coli, ECO200, read-out: MIC of LCB10-0200 with BLI
  MIC: < 0.0312 mg/L
[3]; BLI: 4 ug/mL
  MIC of Meropenem with BLI: 0.0625 mg/L
[3]; Escherichia coli, K0519020, read-out: MIC of LCB10-0200 with BLI
  MIC: < 0.0312 mg/L
[4]; BLI: 4 ug/mL
  MIC of Meropenem with BLI: <0.0312 mg/L
[4]; Escherichia coli, TOPDXA048, read-out: MIC of LCB10-0200 with BLI
  MIC: < 0.0312 mg/L
[5]; BLI: 4 ug/mL
  MIC of Meropenem with BLI: <0.0312 mg/L
[5]; Klebsiella aerogenes, K9911729, read-out: MIC of LCB10-0200 with BLI
  MIC: < 0.0312 mg/L
[6]
  IC50: 2.74 µM
[7]
  IC50: 1190 µM
[8]
  IC50: 0.185 µM
[9]
  IC50: 29.5 µM
[10]; ICR
  AUC(0-inf): 31 ± 0.5 µg·h/mL
  Cmax: 64.2 ± 3.88 µg/mL
  Tmax: 4.8 min
  clearance: 1.62 L/h/kg
  half-life: 75 ± 9 min
[10]; ICR, read-out: Vss
  Vd: 1.81 ± 0.14 L/kg
[10]
  AUCnorm: 0.62 ± 0.01 kg·h/L
  Cmax, norm: 1.28 ± 0.08 kg/L

## NC[C@H]1CC([C@@H]2CC[C@@H]3CN2C(=O)N3OS(=O)(=O)O)=NO1 [Example 15, [(2S)-2-[(5R)-5-(aminomethyl)-4,5-dihydroisoxazol-3-yl]-7-oxo-1,6-diazabicyclo[3.2.1]octan-6-yl] hydrogen sulfate]
[6]
  IC50: 3.03 µM
[7]
  IC50: 1650 µM
[8]
  IC50: 0.123 µM
[9]
  IC50: 6.42 µM
[11]
  coverage on various β-lactamases compared with Cubist-1: much broader coverage on various β-lactamases than Cubist-1
